Measurements taken from patent US20160213647A1, “COMPOSITIONS AND METHODS FOR INHIBITING VIRAL INFECTION” (priority 2015, published 2016).
In brackets after ≈: the same amount, converted by molar mass. Where two headings read alike, the source gives them in different places.

How the values were obtained:
[1] = test system: HIV-1 isolate A17; experiment: microbe, parasite or virus in culture; conditions: Human immunodeficiency virus 1, PBMC
[2] = test system: HIV-2 CBL20 H9; experiment: microbe, parasite or virus in culture; conditions: Human immunodeficiency virus 2, PBMC
[3] = test system: arenavirus Tacaribe (TCRV), strain TRLV11573; experiment: microbe, parasite or virus in culture; format: cell-based, Tacaribe virus; conditions: A549
[4] = test system: HIV-1 92HT599; experiment: microbe, parasite or virus in culture; conditions: Human immunodeficiency virus 1, PBMC
[5] = test system: JUNV strain IV4454; experiment: microbe, parasite or virus in culture; conditions: Mammarenavirus juninense, Vero, 48 h
[6] = test system: A/Ca/07/09 (H1N1); experiment: microbe, parasite or virus in culture; format: cell-based; conditions: Influenza A virus, H1N1, HEK-293T; read-out: EC50
[7] = test system: DENV-3; experiment: Virus yield reduction assay by qRT-PCR in Vero cells; format: cell-based; conditions: Dengue virus, DENV3, Vero, 48 h, read-out: Antiviral Activity IC50
[8] = test system: DENV-2; experiment: as above; format: cell-based; conditions: Dengue virus, DENV2, Vero, 48 h, read-out: Antiviral Activity IC50
[9] = test system: HIV-1 MDR 769; experiment: microbe, parasite or virus in culture; conditions: Human immunodeficiency virus 1, PBMC
[10] = test system: Junin virus strains Candid-1, XJC13 and IV4454; experiment: in vitro; conditions: African green monkey (Vero), human (A549)
[11] = test system: HIV-1 isolate MDR807; experiment: microbe, parasite or virus in culture; conditions: Human immunodeficiency virus 1, PBMC
[12] = test system: HIV-1 isolate NL4-3; experiment: microbe, parasite or virus in culture; conditions: Human immunodeficiency virus 1, NL43, PBMC
[13] = in vivo; cited from earlier work
[14] = test system: three JUNV strains; experiment: microbe, parasite or virus in culture; conditions: Mammarenavirus juninense, read-out: EC50 values, range depending on the virus strain and the host cell
[15] = test system: CHIKV 899 wild-type; experiment: Chikungunya virus-induced cell death (CPE, MTS/PMS) assay in Vero A cells
[16] = test system: HIV-2 CDC 310319
[17] = test system: A/Udorn/72 (H3N2); experiment: microbe, parasite or virus in culture; format: cell-based; conditions: Influenza A virus, H3N2, HEK-293T; read-out: EC50
[18] = test system: influenza A virus (IAV) strain PR8 (H1N1); format: cell-based
[19] = test system: Norovirus; experiment: microbe, parasite or virus in culture; format: cell-based
[20] = test system: DENV-4; experiment: Virus yield reduction assay by qRT-PCR in Vero cells; format: cell-based; conditions: Dengue virus, DENV4, Vero, 48 h, read-out: Antiviral Activity IC50
[21] = test system: Rabies Virus; experiment: microbe, parasite or virus in culture; format: cell-based; conditions: Lyssavirus rabies
[22] = test system: HIV-1 isolate MDR769; experiment: microbe, parasite or virus in culture; conditions: Human immunodeficiency virus 1, PBMC
[23] = test system: HIV-1 91US001
[24] = test system: JUNV strain IV4454; experiment: microbe, parasite or virus in culture; conditions: Mammarenavirus juninense, A549, 48 h
[25] = test system: JUNV strain Candid-1; experiment: microbe, parasite or virus in culture; conditions: Mammarenavirus juninense, Vero, 48 h
[26] = in vitro; conditions: African green monkey, CC50 (Neutral Red)
[27] = test system: influenza A virus (IAV) strain PR8 (H1N1); format: cell-based; remark: listed apart in the source
[28] = Cytotoxicity (CC50) in the in vitro viral screen; format: cell-based; conditions: African green monkey, MA-104 cells; listed as Respiratory Syncytial Virus A2; visual
Description: (§1) The results of an exemplary in vitro screen of the activity of AR-12 against various viruses is summarized below.

[29] = test system: MA-104; experiment: Cytotoxicity (CC50) in the in vitro viral screen; format: cell-based; conditions: listed as Respiratory Syncytial Virus A2; neutral red
Description: as §1

[30] = test system: DENV-1; experiment: Virus yield reduction assay by qRT-PCR in Vero cells; format: cell-based; conditions: Dengue virus, DENV1, Vero, 48 h, read-out: Antiviral Activity IC50
[31] = test system: BK virus; experiment: microbe, parasite or virus in culture; format: cell-based; conditions: Betapolyomavirus hominis
[32] = test system: Varicella-zoster virus; experiment: microbe, parasite or virus in culture; format: cell-based; conditions: Human alphaherpesvirus 3
[33] = test system: Vero cells; conditions: African green monkey
[34] = test system: HIV-1 isolate 1022-48; experiment: microbe, parasite or virus in culture; conditions: Human immunodeficiency virus 1, PBMC
[35] = test system: arenavirus Tacaribe (TCRV), strain TRLV11573; experiment: microbe, parasite or virus in culture; format: cell-based, Tacaribe virus; conditions: Vero
[36] = test system: JUNV strain Candid-1; experiment: microbe, parasite or virus in culture; conditions: Mammarenavirus juninense, A549, 48 h

NCC(=O)Nc1ccc(-n2nc(C(F)(F)F)cc2-c2ccc3c(ccc4ccccc43)c2)cc1 [AR-12, 2-amino-N-(4-(5-(phenanthren-2-yl)-3-(trifluoromethyl)-1H-pyrazol-1-yl)phenyl)acetamide]
IC90 [1]: 914 nM
IC90 ([1]; read-out: IC50): 6640 nM
IC50 [2]: 510 nM
EC50 [3]: 840 ± 20 nM
IC50 [4]: 270 nM
EC50 [5]: 510 ± 50 nM
EC50 [6]: 370 nM
IC50 [7]: 600 nM
IC50 [8]: 800 nM
IC50 [9]: 310 nM
selectivity ratio [10]: 35.1 to 129
IC90 [11]: 905 nM
IC90 ([11]; read-out: IC50): 2130 nM
IC90 [12]: 749 nM
IC90 ([12]; read-out: IC50): 2170 nM
accumulation in tissues [13]: appreciable accumulation in tissues
blood brain barrier penetration [13]: rapid blood brain barrier penetration
EC50 [14]: 150 to 550 nM
selectivity index ([15]; CC50/EC50, wild-type ChikV): 5.8
EC50 ([15]; Chikungunya virus, Vero, read-out: EC50 WT): 1100 ± 500 nM
IC50 [16]: 370 nM
EC50 [17]: 330 nM
viral infection (% infection) [18]: prevents viral infections
EC50 [19]: 718 nM
EC90 [19]: 8100 nM
IC50 [20]: 890 nM
EC50 [21]: 2610 nM
IC90 [22]: 848 nM
IC90 ([22]; read-out: IC50): 3820 nM
IC50 [23]: 240 nM
EC50 [24]: 550 ± 50 nM
EC50 [25]: < 150 nM
CC50 [26]: 1.3 µg/mL (≈ 2.82 µM)
viral protein production is reduced [27]: at least 50%
CC50 [28]: 3.2 µg/mL (≈ 6.95 µM)
CC50 (neutral red) [29]: 3.2 (visual), 3.2
IC50 [30]: 640 nM
EC50 [31]: > 2400 nM
EC90 [31]: > 2400 nM
EC50 [32]: 1150 nM
EC90 [32]: 1680 nM
MNTD [33]: > 10 µM
IC90 [34]: 489 nM
IC90 ([34]; read-out: IC50): 3680 nM
EC50 [35]: 350 ± 30 nM
EC50 [36]: 150 ± 20 nM
